This is an account of results in patent publication US20260166114A1, “DYNAMIC HYDROGEL COMPOSITIONS” (The Board of Trustees of the Leland Stanford Junior …, priority 2022, published 2026).

Entries after “also recorded” stand apart in the source; their conditions may differ.

The nature of the data set: Rheological characterization of hydrogel compositions (shear and extensional rheology). Type of data set: physicochemical. Particulars: for change of crossover frequency compared to the Sangelose only hydrogel: 3 wt % Sangelose with 0.75 wt % second agent (αCD 0.05 wt %), 25° C.; for storage modulus (G′) compared to Sangelose only hydrogels / tan (delta) compared to Sangelose only hydrogels: measured at 0.1 rad·s^−1, 3 wt % Sangelose with second agent; for G′ values compared to hydrogels comprising only Sangelose (Tween comparison): at a frequency of 10 rad·s^−1, 3 wt % Sangelose, 0.75 wt % Tween. The method, then:
Rheological characterization was performed using a 20-mm diameter serrated parallel plate at a 500-μm gap on a TA Instruments DHR-2 stress-controlled rheometer. All measurements were performed at 25° C. Frequency sweep measurements were performed at a constant 1% strain. Steady shear flow sweeps were performed from high to low shear rates. Stress sweeps were performed from low to high with steady-state sensing and yield stress values defined as the stress at which the viscosity decreases 10% from the maximum. Amplitude sweep measurements were performed at a frequency of 0.1 rad·s^-1. P values are calculated with a one-way ANOVA followed by post hoc Tukey multiple comparison test unless otherwise noted. Extensional rheology was performed on a TA Instruments ARES-G2 rheometer in axial mode using an 8-mm parallel plate geometry (R=4 mm) at a H=4 mm gap, resulting in an aspect ratio of H/R=1. A sample volume of 400 μl was loaded for each of the three replicated measurements. All experiments were performed at 25° C. Samples of the hydrogel compositions were loaded and tested immediately within seconds to minimize dehydration. […] (exponential) strain rates were applied at three different strain rates.

With `OCC1O[C@@H]2O[C@@H]3C(CO)O[C@H](O[C@@H]4C(CO)O[C@H](O[C@@H]5C(CO)O[C@H](O[C@@H]6C(CO)O[C@H](O[C@@H]7C(CO)O[C@H](O[C@H]1[C@H](O)[C@H]2O)[C@H](O)[C@H]7O)[C@H](O)[C@H]6O)[C@H](O)[C@H]5O)[C@H](O)[C@H]4O)[C@H](O)[C@H]3O` (stereo partly drawn) [αCD, α-cyclodextrin], the “change of crossover frequency compared to the Sangelose only hydrogel” value (from here on “change of crossover frequency”) is recorded as “shift rightward”, the “storage modulus (G′) compared to Sangelose only hydrogels” value is “lower than the storage modulus of the Sangelose only hydrogels” and the “tan (delta) compared to Sangelose only hydrogels” value is given as “higher than the tan (delta) values of the Sangelose only hydrogels”.
Take Span 20: the “change of crossover frequency” value was “did not change the crossover frequency”.
In the case of “polyoxyethylene (20) sorbitan monolaurate [Tween 20]”, the “change of crossover frequency” value is listed as “shift rightward”, the “G′ values compared to hydrogels comprising only Sangelose (Tween comparison)” value is “lower G′ values”, the “storage modulus (G′) compared to Sangelose only hydrogels” value is on record as “lower than the storage modulus of the Sangelose only hydrogels” and the “tan (delta) compared to Sangelose only hydrogels” value is “higher than the tan (delta) values of the Sangelose only hydrogels; also recorded: significantly higher tan (delta) values”.
On to “polyoxyethylene (20) sorbitan monooleate [Tween 80]”, for which the “change of crossover frequency” value is given as “shift rightward”, the “G′ values compared to hydrogels comprising only Sangelose (Tween comparison)” value is “lower G′ values”, the “storage modulus (G′) compared to Sangelose only hydrogels” value is listed as “lower than the storage modulus of the Sangelose only hydrogels” and the “tan (delta) compared to Sangelose only hydrogels” value is “higher than the tan (delta) values of the Sangelose only hydrogels; also recorded: significantly higher tan (delta) values”.
Consider “polyoxyethylene (20) sorbitan monopalmitate [Tween 40]”, for which the “G′ values compared to hydrogels comprising only Sangelose (Tween comparison)” value is “lower G′ values” and the “tan (delta) compared to Sangelose only hydrogels” value is recorded as “significantly higher tan (delta) values”.
